# Data reported in patent US11360080B2, “AhR-ROR-γt complex as a biomarker and therapeutic target for autoimmune disease and IL-17A-associated disease” (NATIONAL HEALTH RESEARCH INSTITUTES, priority 2018, dated 2022).
# Key:
# [1] = target: T1, AhR-RORγt complex (UniProt P35869+P51450); experiment: FRET assay of HEK293T cells co-transfected with CFP-AhR, YFP-RORγt and IKKβ plasmids; type: cell-based; conditions: IKKβ
# T1 construct: expressed in transfected cells; host or cells: HEK293T
# Description: (A) Luciferase activity of NF-κB-driven reporter assays in stable GLK-transfected CHO-K1 cells that were treated with or without the GLK inhibitor C1 (verteporfin) under the indicated concentration. The fold changes are presented relative to the value of vector control. (B) Recombinant proteins of GLK kinase domain plus recombinant proteins of GST-tagged kinase-dead PKCθ (K409W) were subjected to in vitro kinase assays in the presence or absence of the GLK inhibitor C1 (verteporfin). Means±SD of are shown. *, P value<0.05; **, P value<0.01 (two-tailed Student's t-test). (C) The AhR-RORγt complex was inhibited by the GLK inhibitor. […] (D) Quantification of the PLA signals of (C). […]
# FRET signal in live cells was detected by EnVision 2104 Multilabel Plate Reader (Perkin Elmer). The reaction was excited by light passing through a 430-nm filter (with 8 nm bandwidth), and the intensity of emitted fluorescence passing through a 530-nm filter (with 8 nm bandwidth) was recorded. If the protein-protein pair is in close proximity (1-10 nm), a 530-nm signal will be detected. The FRET efficiency was calculated using the following equation: FRET efficiency=((FRET−CFP×a−YFP×b)/YFP)×100%, where FRET, CFP, and YFP correspond to the fluorescent intensities acquired through FRET, CFP, and YFP filter sets, respectively; a and b are the donor emission and acceptor excitation crosstalk ratios, respectively. […]
# [2] = system: murine primary T cells; experiment: ELISA of cytokines in supernatants of murine primary T cells stimulated with anti-CD3/CD28; type: cell-based, mouse; conditions: 5 μM or 10 μM for 3 days
# Description: Means±SD are shown, (b) ELISA of IL-17A in supernatants of human T cells. T cells were stimulated with anti-CD3/CD28 and treated with C1 (verteporfin) (1 μM or 5 μM) or C2 (1 μM or 5 μM) for 3 days. HC, healthy control; SLE, systemic lupus erythematosus; RA, rheumatoid arthritis; AS, ankylosing spondylitis; PsA, psoriatic arthritis; PSS, primary Sjögren's syndrome. Means±SD are shown. C1 denotes verteporfin; C2 denotes alexidine dihydrochloride.
# We further studied whether IL-17A production is abolished by the inhibitors of GLK-induced AhR-RORγt complex in human and murine T cells. We first tested the inhibitor experiment using murine T cells stimulated with TCR signaling (anti-CD3 plus anti-CD28 antibodies). […] Next, we studied the blocking effect of IL-17 production by the treatment of C1 (verteporfin) or C2 (alexidine dihydrochloride) using human peripheral blood T cells. […] Taken together, GLK inhibitors (verteporfin and alexidine dihydrochloride) inhibit GLK-induced AhR-RORγt complex and IL-17A production in human autoimmune patient T cells, as well as the disease severity of autoimmune animal models. Thus, GLK, GLK signaling, or GLK-induced AhR-RORγt complex can be a promising therapeutic target for autoimmune diseases.
# T1 sequence (P35869 11-848): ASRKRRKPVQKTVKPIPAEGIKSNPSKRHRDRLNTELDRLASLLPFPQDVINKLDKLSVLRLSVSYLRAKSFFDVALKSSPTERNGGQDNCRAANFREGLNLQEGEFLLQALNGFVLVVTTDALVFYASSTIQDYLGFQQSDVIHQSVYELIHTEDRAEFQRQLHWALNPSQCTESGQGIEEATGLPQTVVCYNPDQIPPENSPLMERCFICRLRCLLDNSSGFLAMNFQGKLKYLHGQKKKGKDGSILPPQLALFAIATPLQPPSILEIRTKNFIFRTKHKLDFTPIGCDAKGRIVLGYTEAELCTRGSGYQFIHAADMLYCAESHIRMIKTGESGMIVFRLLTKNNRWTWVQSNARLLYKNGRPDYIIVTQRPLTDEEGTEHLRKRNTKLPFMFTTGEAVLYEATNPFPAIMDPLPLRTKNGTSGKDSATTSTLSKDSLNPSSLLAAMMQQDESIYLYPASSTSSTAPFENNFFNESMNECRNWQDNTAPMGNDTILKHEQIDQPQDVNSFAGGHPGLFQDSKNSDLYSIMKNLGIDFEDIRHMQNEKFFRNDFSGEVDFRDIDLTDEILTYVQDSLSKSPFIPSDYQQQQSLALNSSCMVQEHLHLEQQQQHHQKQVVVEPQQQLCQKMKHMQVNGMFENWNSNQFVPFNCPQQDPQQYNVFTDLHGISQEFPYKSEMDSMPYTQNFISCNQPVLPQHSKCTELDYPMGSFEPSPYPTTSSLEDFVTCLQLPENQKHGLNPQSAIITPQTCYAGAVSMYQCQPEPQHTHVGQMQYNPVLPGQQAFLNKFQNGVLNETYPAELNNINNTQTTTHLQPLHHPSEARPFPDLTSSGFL
# T1 sequence (P51450 1-495 isoform P51450-2 T331K): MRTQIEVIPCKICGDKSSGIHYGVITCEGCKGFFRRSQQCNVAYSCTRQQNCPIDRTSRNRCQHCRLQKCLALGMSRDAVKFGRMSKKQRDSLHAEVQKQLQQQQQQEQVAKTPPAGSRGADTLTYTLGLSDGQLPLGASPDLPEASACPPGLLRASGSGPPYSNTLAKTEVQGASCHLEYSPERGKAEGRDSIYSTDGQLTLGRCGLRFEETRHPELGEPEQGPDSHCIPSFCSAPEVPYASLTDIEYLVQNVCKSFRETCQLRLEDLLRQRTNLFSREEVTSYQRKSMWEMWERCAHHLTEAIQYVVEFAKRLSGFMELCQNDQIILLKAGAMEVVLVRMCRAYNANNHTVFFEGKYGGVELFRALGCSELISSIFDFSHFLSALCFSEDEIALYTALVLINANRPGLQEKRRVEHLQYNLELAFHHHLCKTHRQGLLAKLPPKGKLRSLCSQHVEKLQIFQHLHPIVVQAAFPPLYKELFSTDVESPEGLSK
compound,measurement,setting,value
"C=Cc1c(C)c2cc3nc(cc4[nH]c(cc5nc(cc1[nH]2)C(C)=C5CCC(=O)O)c(CCC(=O)OC)c4C)[C@@]1(C)C3=CC=C(C(=O)OC)[C@H]1C(=O)OC [C1, verteporfin]",FRET signals AhR-RORγt,[1],inhibited
same,TCR-induced IFN-γ level,[2],partially reduced
same,TCR-induced IL-17A production,[2],drastically abolished
same,TCR-induced IL-17B level,[2],not decreased
same,TCR-induced IL-17E level,[2],not decreased
same,TCR-induced IL-17F level,[2],not decreased
same,TCR-induced TNF-α level,[2],partially reduced
